Patent publication US12383623B2, “Liquid pharmaceutical compositions of polypeptide conjugates and methods of uses thereof” (BEIJING QL BIOPHARMACEUTICAL CO., LTD., priority 2022, dated 2025)

Columns and labels:
[1] = test system: db/db mice; assay: Non-fasting glucose in db/db mice after a single s.c. dose; type: in vivo
Experimental: Method: 10 weeks old male db/db mice were injected subcutaneously with GLP-1 polypeptide conjugate once. […] Delta blood glucose is glucose subtracted by baseline level. […] The area under the curve for delta blood glucose from 0 until 192 hours (AUCΔ8G 0-192 h) was calculated.

[2] = biological target: GLP-1 receptor (Homo sapiens, UniProt P43220); settings: J. Med. Chem. 2015, 58, 7370-7380; cited from earlier work
Chain of GLP-1 receptor (P43220 24-463, species assumed): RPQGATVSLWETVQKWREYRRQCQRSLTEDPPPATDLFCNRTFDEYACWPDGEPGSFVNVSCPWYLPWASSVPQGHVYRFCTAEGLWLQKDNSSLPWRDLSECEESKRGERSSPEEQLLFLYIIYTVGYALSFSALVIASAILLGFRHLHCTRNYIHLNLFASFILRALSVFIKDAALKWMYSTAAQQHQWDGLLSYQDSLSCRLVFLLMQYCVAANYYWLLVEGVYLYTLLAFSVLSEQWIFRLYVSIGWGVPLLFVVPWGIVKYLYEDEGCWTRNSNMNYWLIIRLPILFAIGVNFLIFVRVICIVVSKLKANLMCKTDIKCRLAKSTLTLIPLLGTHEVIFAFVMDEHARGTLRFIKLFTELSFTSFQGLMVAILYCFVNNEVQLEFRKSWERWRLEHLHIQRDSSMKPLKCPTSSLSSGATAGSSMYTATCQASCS

[3] = Body weight loss in C57 lean mice after a single s.c. dose; type: in vivo, C57BL/6 mice; settings: 30 nmol/kg s.c. once
Experimental: Method: 10 week old male C57BL/6 mice were injected subcutaneously with protein once on Day1. Body weight was measured daily and five animals were used for each treatment group. Body weight was monitored for each individual animal. % BW loss=100*(BW on Day n-BW on Day 1)/(BW on Day 1). […] The area under the curve for body weight loss (%) from 0 until 8 days (AUC ΔBW 0-8d) was calculated.

[4] = biological target: human serum albumin (Homo sapiens, UniProt P02768); assay: Human serum albumin binding by surface plasmon resonance (Biacore 8K); settings: human serum albumin bound to CM5 chip
Chain of human serum albumin (P02768 25-609): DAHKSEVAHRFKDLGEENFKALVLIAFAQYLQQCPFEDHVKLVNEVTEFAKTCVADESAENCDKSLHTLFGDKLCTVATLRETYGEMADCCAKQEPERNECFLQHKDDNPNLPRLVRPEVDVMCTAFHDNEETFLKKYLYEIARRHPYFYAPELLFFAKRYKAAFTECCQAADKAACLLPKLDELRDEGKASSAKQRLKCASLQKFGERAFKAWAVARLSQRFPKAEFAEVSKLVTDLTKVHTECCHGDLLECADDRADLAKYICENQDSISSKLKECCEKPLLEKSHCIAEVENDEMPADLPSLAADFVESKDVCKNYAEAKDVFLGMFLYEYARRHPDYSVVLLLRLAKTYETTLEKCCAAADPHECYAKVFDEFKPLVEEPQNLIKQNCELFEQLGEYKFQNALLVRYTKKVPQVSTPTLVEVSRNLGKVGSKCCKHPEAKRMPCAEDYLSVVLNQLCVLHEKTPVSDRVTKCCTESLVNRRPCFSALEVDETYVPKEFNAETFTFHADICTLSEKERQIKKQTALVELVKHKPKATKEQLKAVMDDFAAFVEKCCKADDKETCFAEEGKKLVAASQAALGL
Experimental: Method: Binding of molecules to serum albumin was characterized by surface plasmon resonance in a Biacore 8K instrument. Serum albumin from different species was covalently bound to CM5 sensor chips surface until 4000 RU was reached. The chip was blocked by 1M ethanolamine with flowrate of 10 μL/min for 420 s. Each molecule sample was diluted and injected at a flow rate of 30 μL/min to allow for binding to chip-bound albumin for 120 s and for dissociation for 300 s. Binding buffer without molecule was sent over the chip at the flow rate of 20 seconds to allow spontaneous dissociation of bound molecule for 30 seconds.

Semaglutide [reference compound]
AUCΔBG 0-192 h ([1]; 3 nmol/kg s.c. once): -317.0 mmol·h/L | AUCΔBG 0-192 h ([1]; 10 nmol/kg s.c. once): -583.4 mmol·h/L | AUCΔBG 0-192 h ([1]; 30 nmol/kg s.c. once): -527.1 mmol·h/L | Loss in GLP-1 receptor binding in presence of human serum albumin relative to unconjugated counterpart [2]: 939 fold | AUC ΔBW 0-8 d ([3]; Study 1 (FIG. 1A)): −9.3 day*% | AUC ΔBW 0-8 d ([3]; Study 2 (FIG. 1B)): −13.2 day*% | Rmax [4]: 55.2 RU
